Assays:
[1] = tested on: DfrA52; experiment: NADPH oxidation followed at […] nm, nonlinear regression; format: biochemical, Escherichia phage vB_EcoM_BMB16; details: 100 uM NADPH; dihydrofolate 5-100 uM; 50 mM Tris-HCl, 50 mM KCl, pH 7.5; ~25 C
[2] = tested on: DfrA43; experiment: as above; format: biochemical; details: 100 uM NADPH; dihydrofolate 5-100 uM; 50 mM Tris-HCl, 50 mM KCl, pH 7.5; ~25 C

Work on `Nc1nc2c(c(=O)[nH]1)N=C(CNc1ccc(C(=O)N[C@@H](CCC(=O)O)C(=O)O)cc1)CN2` [dihydrofolate] yielded a Km [1] of 167 ± 34.8 µM and a Km [2] of 47.6 ± 21.6 µM.

— paper PMC12466917, “Evolutionary selection of trimethoprim-resistant dfrA genes in lytic phages affects phage and host fitness during infection” (Science Advances, 2025)
